According to ChEMBL document CHEMBL5634137, “2,4-Diacetylphloroglucinol (DAPG) derivatives rapidly eradicate methicillin-resistant staphylococcus aureus without resistance development by disrupting membrane” (Eur J Med Chem, 2023):
Values after ≈ are worked out from the molar mass of the structure shown. Active and inactive are the calls of the source. The calls are words filed in the database; no cut-off is given here.

Key:
[1] = system: Staphylococcus aureus; assay: Antibacterial activity against Methicillin-resistant Staphylococcus aureus USA300 assessed as inhibition of bacterial growth incubated for 24 hrs by broth dilution method; type: functional
[2] = system: Escherichia coli; assay: Antibacterial activity against Escherichia coli ATCC 11775 assessed as inhibition of bacterial growth incubated for 24 hrs by broth dilution method; type: functional
[3] = system: Klebsiella pneumoniae; assay: Antibacterial activity against Klebsiella pneumoniae […] assessed as inhibition of bacterial growth incubated for 24 hrs by broth dilution method; type: functional
[4] = system: Pseudomonas aeruginosa; assay: Antibacterial activity against Pseudomonas aeruginosa […] assessed as inhibition of bacterial growth incubated for 24 hrs by broth dilution method; type: functional
[5] = system: Staphylococcus aureus; assay: Bactericidal against methicillin-resistant Staphylococcus aureus ATCC 4330 assessed as inhibition of bacterial growth incubated for 24 hrs by broth dilution method; type: functional
[6] = system: Staphylococcus aureus; assay: Bactericidal activity against methicillin-resistant Staphylococcus aureus ATCC 3392 assessed as inhibition of bacterial growth incubated for 24 hrs by broth dilution method; type: functional
[7] = system: Staphylococcus aureus; assay: Antibacterial activity against methicillin-resistant Staphylococcus aureus ATCC 4330 assessed as inhibition of bacterial growth incubated for 24 hrs by broth dilution method; type: functional
[8] = system: Staphylococcus aureus; assay: Antibacterial activity against methicillin-resistant Staphylococcus aureus ATCC 3392 assessed as inhibition of bacterial growth incubated for 24 hrs by broth dilution method; type: functional
[9] = system: Staphylococcus aureus; assay: Antibacterial activity against Methicillin-resistant Staphylococcus aureus USA300 infected in mouse skin infection model assessed as reduction in number of bacteria at 10 mg/kg, sc administered every 12 hrs for 3 days; type: functional; settings: time 3.0 day
[10] = system: Staphylococcus aureus; assay: Selectivity index, ratio of MBC for bactericidal against methicillin-resistant Staphylococcus aureus ATCC 4330 to MIC for antibacterial activity against methicillin-resistant Staphylococcus aureus ATCC 4330; type: functional
[11] = Cytotoxicity against mouse RAW264.7 cells assessed as survival rate incubated for 24 hrs by MTT assay; type: toxicity, cell-based; set-up: concentration or dose not given beside the values; settings: read-out: Survival
[12] = Cytotoxicity against human L02 cells assessed as survival rate incubated for 24 hrs by MTT assay; type: toxicity, cell-based; set-up: concentration or dose not given beside the values; settings: read-out: Survival
[13] = system: Staphylococcus aureus; assay: Selectivity index, ratio of MBC for bactericidal against methicillin-resistant Staphylococcus aureus ATCC 3392 to MIC for antibacterial activity against methicillin-resistant Staphylococcus aureus ATCC 3392; type: functional

Structure (SMILES) | MIC [1] | MIC [2] | MIC [3] | MIC [4] | MBC [5] | MBC [6] | MIC [7] | MIC [8] | Activity [9] | Selectivity Index [10] | viability at 24 h [11] | viability at 24 h [12] | Selectivity Index [13]
CCCCC(=O)c1c(O)cc(O)c(C(=O)CCCC)c1O | 0.5 µg/mL (≈ 1.7 µM) | 64 µg/mL (≈ 217 µM) | > 64 µg/mL | > 64 µg/mL | 2 µg/mL (≈ 6.79 µM) | 4 µg/mL (≈ 13.6 µM) | 2 µg/mL (≈ 6.79 µM) | 2 µg/mL (≈ 6.79 µM) | – | – | – | – | –
Cc1onc(-c2ccccc2)c1C(=O)N[C@@H]1C(=O)N2[C@@H]1SC(C)(C)[C@@H]2C(=O)O [OXACILLIN] | 16 µg/mL (≈ 39.9 µM) | – | – | – | – | – | – | – | inactive | – | – | – | –
CC(C)C(=O)c1c(O)cc(O)c(C(=O)C(C)C)c1O | – | – | – | – | – | – | 4 µg/mL (≈ 15 µM) | 4 µg/mL (≈ 15 µM) | – | – | – | – | –
COc1cc(O)c(C(C)=O)c(O)c1C(C)=O | – | – | – | – | – | – | > 64 µg/mL | > 64 µg/mL | – | – | – | – | –
O=C(Cc1ccccc1)c1c(O)cc(O)cc1O | – | – | – | – | – | – | 32 µg/mL (≈ 131 µM) | > 64 µg/mL | – | – | – | – | –
CCC(C)C(=O)c1c(O)cc(O)cc1O (stereo not drawn) | – | – | – | – | – | – | 32 µg/mL (≈ 152 µM) | > 64 µg/mL | – | – | – | – | –
CCCCCCCCC(=O)c1c(O)cc(O)cc1O | – | – | – | – | – | – | 8 µg/mL (≈ 30 µM) | 8 µg/mL (≈ 30 µM) | – | – | – | – | –
CCC(=O)c1c(O)cc(O)cc1O [FLOPROPIONE] | – | – | – | – | – | – | > 64 µg/mL | > 64 µg/mL | – | – | – | – | –
O=C(O)c1cn(C2CC2)c2cc(N3CCNCC3)c(F)cc2c1=O [CIPROFLOXACIN] | 0.25 µg/mL (≈ 0.754 µM) | – | – | – | – | – | 0.25 µg/mL (≈ 0.754 µM) | 0.25 µg/mL (≈ 0.754 µM) | – | – | – | – | –
COc1cc(OC)c(C(C)=O)c(OC)c1C(C)=O | – | – | – | – | – | – | > 64 µg/mL | > 64 µg/mL | – | – | – | – | –
CCC(=O)c1c(O)cc(O)c(C(=O)CC)c1O | – | – | – | – | – | – | 4 µg/mL (≈ 16.8 µM) | 8 µg/mL (≈ 33.6 µM) | – | – | – | – | –
CCCCC(=O)c1c(O)cc(O)c(C(=O)CC(C)(C)C)c1O | 0.5 µg/mL (≈ 1.62 µM) | > 64 µg/mL | > 64 µg/mL | > 64 µg/mL | 4 µg/mL (≈ 13 µM) | 4 µg/mL (≈ 13 µM) | 0.5 µg/mL (≈ 1.62 µM) | 0.5 µg/mL (≈ 1.62 µM) | – | 8 | 76% | 75% | –
CCCCCCCC(=O)c1c(O)cc(O)cc1O | – | – | – | – | – | – | 8 µg/mL (≈ 31.7 µM) | 8 µg/mL (≈ 31.7 µM) | – | – | – | – | –
O=Cc1c(O)cc(O)c(C=O)c1O | – | – | – | – | – | – | > 64 µg/mL | > 64 µg/mL | – | – | – | – | –
CCC(C)C(=O)c1c(O)cc(O)c(C(=O)C(C)CC)c1O (stereo not drawn) | – | – | – | – | – | – | 4 µg/mL (≈ 13.6 µM) | 4 µg/mL (≈ 13.6 µM) | – | – | – | – | –
COc1cc(OC)c(C(C)=O)c(O)c1C(C)=O | – | – | – | – | – | – | > 64 µg/mL | > 64 µg/mL | – | – | – | – | –
CC(C)CCC(=O)c1c(O)cc(O)c(C(=O)CCC(C)C)c1O | 0.5 µg/mL (≈ 1.55 µM) | > 64 µg/mL | > 64 µg/mL | > 64 µg/mL | 2 µg/mL (≈ 6.2 µM) | 2 µg/mL (≈ 6.2 µM) | 0.5 µg/mL (≈ 1.55 µM) | 0.5 µg/mL (≈ 1.55 µM) | – | 4 | – | – | 4
C[C@H]1c2cccc(O)c2C(=O)C2=C(O)[C@]3(O)C(=O)C(C(N)=O)=C(O)[C@@H](N(C)C)[C@@H]3[C@@H](O)[C@@H]21 [DOXYCYCLINE ANHYDROUS] | 0.5 µg/mL (≈ 1.13 µM) | – | – | – | – | – | – | – | – | – | – | – | –
CCCCC(=O)c1c(O)cc(O)c(C(=O)C2CCCCC2)c1O | 0.5 µg/mL (≈ 1.56 µM) | > 64 µg/mL | > 64 µg/mL | > 64 µg/mL | 1 µg/mL (≈ 3.12 µM) | 4 µg/mL (≈ 12.5 µM) | 0.5 µg/mL (≈ 1.56 µM) | 0.5 µg/mL (≈ 1.56 µM) | – | 2 | 76% | 75% | 8
CCCCCCCCCC(=O)c1c(O)cc(O)cc1O | – | – | – | – | – | – | 32 µg/mL (≈ 114 µM) | 32 µg/mL (≈ 114 µM) | – | – | – | – | –
CCCC(=O)c1c(O)cc(O)c(C(=O)CCC)c1O | – | – | – | – | – | – | 4 µg/mL (≈ 15 µM) | 4 µg/mL (≈ 15 µM) | – | – | – | – | –
O=C(c1c(O)cc(O)c(C(=O)C2CCCC2)c1O)C1CCCC1 | 0.5 µg/mL (≈ 1.57 µM) | 64 µg/mL (≈ 201 µM) | > 64 µg/mL | > 64 µg/mL | 4 µg/mL (≈ 12.6 µM) | 4 µg/mL (≈ 12.6 µM) | 1 µg/mL (≈ 3.14 µM) | 1 µg/mL (≈ 3.14 µM) | – | 4 | 76% | 75% | 4
CCCCC(=O)c1c(O)cc(O)c(C(=O)CCC(C)C)c1O | 0.5 µg/mL (≈ 1.62 µM) | > 64 µg/mL | > 64 µg/mL | > 64 µg/mL | 2 µg/mL (≈ 6.49 µM) | 8 µg/mL (≈ 25.9 µM) | 0.5 µg/mL (≈ 1.62 µM) | 0.5 µg/mL (≈ 1.62 µM) | – | 4 | 76% | 75% | 16
CCCCCC(=O)c1c(O)cc(O)c(C(=O)CCCCC)c1O | 0.5 µg/mL (≈ 1.55 µM) | > 64 µg/mL | > 64 µg/mL | > 64 µg/mL | 2 µg/mL (≈ 6.2 µM) | 2 µg/mL (≈ 6.2 µM) | 0.5 µg/mL (≈ 1.55 µM) | 0.5 µg/mL (≈ 1.55 µM) | – | 4 | – | – | 4
O=C(c1c(O)cc(O)c(C(=O)C2CCC2)c1O)C1CCC1 | 1 µg/mL (≈ 3.44 µM) | 64 µg/mL (≈ 220 µM) | > 64 µg/mL | > 64 µg/mL | 4 µg/mL (≈ 13.8 µM) | 8 µg/mL (≈ 27.6 µM) | 2 µg/mL (≈ 6.89 µM) | 2 µg/mL (≈ 6.89 µM) | – | 2 | – | – | 4
CCCC(=O)c1c(O)cc(O)cc1O | – | – | – | – | – | – | > 64 µg/mL | > 64 µg/mL | – | – | – | – | –
O=Cc1c(O)cc(O)cc1O [PHLOROGLUCINALDEHYDE] | – | – | – | – | – | – | > 64 µg/mL | > 64 µg/mL | – | – | – | – | –
